Reference: patent US10238670B2, “9-aminomethyl minocycline compounds and methods of use thereof in urinary tract infection (UTI) treatment” (Paratek Pharmaceuticals, Inc., priority 2016, dated 2019)
≈ marks a conversion by molar mass, not a printed value. Like-named read-outs stand apart in the source and are kept apart here.

Legend:
Assay in all cases: In vitro MIC, 2010 surveillance isolates
E. cloacae CeftazS = type: cell-based
E. coli ESBL+ = type: cell-based, Escherichia coli; conditions: for Cumulative % Inhibition at MIC: N=795
MSSA = type: cell-based; conditions: for Cumulative % Inhibition at MIC: N=5713
MR CoNS = type: cell-based, Coagulase-Negative Staphylococcus; conditions: for Cumulative % Inhibition at MIC: N=1349
E. coli ESBL− = type: cell-based, Escherichia coli; conditions: for Cumulative % Inhibition at MIC: N=3376
K. pneumoniae ESBL+ = type: cell-based, Klebsiella pneumoniae; conditions: for Cumulative % Inhibition at MIC: N=592
E. faecalis VS = type: cell-based; conditions: for Cumulative % Inhibition at MIC: N=2036
K. oxytoca = type: cell-based; conditions: for Cumulative % Inhibition at MIC: N=377

Compound: CN(C)c1cc(CNCC(C)(C)C)c(O)c2c1C[C@H]1C[C@H]3[C@H](N(C)C)C(O)=C(C(N)=O)C(=O)[C@@]3(O)C(O)=C1C2=O [Compound 1, 9-[(2,2-dimethyl-propylamino)-methyl]-minocycline]
- Cumulative % Inhibition at MIC (E. cloacae CeftazS; MIC ≥32 μg/ml, N=550): 100%
- MIC90 (E. cloacae CeftazS; N America, N=210): 4 µg/mL (≈ 7.19 µM)
- MIC90 (E. coli ESBL+; Asia/Pac, N=219): 2 µg/mL (≈ 3.59 µM)
- MIC90 (E. coli ESBL+; ESBL-producing E. coli): 4 µg/mL (≈ 7.19 µM)
- MIC90 (E. coli ESBL+; Escherichia coli, ESBL-producing E. coli, read-out: MIC90): < 4 µg/mL
- MIC90 (E. coli ESBL+; Europe, N=274): 4 µg/mL (≈ 7.19 µM)
- MIC90 (E. coli ESBL+; L. Amer, N=168): 4 µg/mL (≈ 7.19 µM)
- Cumulative % Inhibition at MIC (E. coli ESBL+; MIC 1 μg/ml): 63.0%
- Cumulative % Inhibition at MIC (E. coli ESBL+; MIC 2 μg/ml): 87.5%
- Cumulative % Inhibition at MIC (E. coli ESBL+; MIC 4 μg/ml): 97.7%
- Cumulative % Inhibition at MIC (E. coli ESBL+; MIC 8 μg/ml): 99.5%
- Cumulative % Inhibition at MIC (E. coli ESBL+; MIC 16 μg/ml): 99.9%
- Cumulative % Inhibition at MIC (E. coli ESBL+; MIC ≤0.5 μg/ml, listed as head image P00006): 30.4%
- Cumulative % Inhibition at MIC (E. coli ESBL+; MIC ≥32 μg/ml): 100%
- MIC90 (E. coli ESBL+; N America, N=134): 4 µg/mL (≈ 7.19 µM)
- MIC90 (MSSA; Asia/Pac, N=641): 0.5 µg/mL (≈ 0.898 µM)
- MIC90 (MSSA; Europe, N=2109): 0.25 µg/mL (≈ 0.449 µM)
- MIC90 (MSSA; L. Amer, N=590): 0.25 µg/mL (≈ 0.449 µM)
- Cumulative % Inhibition at MIC (MSSA; MIC 1 μg/ml): 99.9%
- Cumulative % Inhibition at MIC (MSSA; MIC 2 μg/ml): 100%
- Cumulative % Inhibition at MIC (MSSA; MIC ≤0.5 μg/ml): 99.7%
- MIC90 (MSSA; N America, N=2373): 0.25 µg/mL (≈ 0.449 µM)
- MIC90 (MR CoNS; Asia/Pac, N=77): 1 µg/mL (≈ 1.8 µM)
- MIC90 (MR CoNS; Europe, N=510): 1 µg/mL (≈ 1.8 µM)
- MIC90 (MR CoNS; L. Amer, N=301): 1 µg/mL (≈ 1.8 µM)
- Cumulative % Inhibition at MIC (MR CoNS; MIC 1 μg/ml): 99.1%
- Cumulative % Inhibition at MIC (MR CoNS; MIC 2 μg/ml): 100%
- Cumulative % Inhibition at MIC (MR CoNS; MIC ≤0.5 μg/ml): 85.9%
- MIC90 (MR CoNS; N America, N=461): 1 µg/mL (≈ 1.8 µM)
- MIC90 (E. coli ESBL−; Asia/Pac, N=282): 2 µg/mL (≈ 3.59 µM)
- MIC90 (E. coli ESBL−; Escherichia coli, ESBL-negative E. coli, read-out: MIC90): 2 µg/mL (≈ 3.59 µM)
- MIC90 (E. coli ESBL−; Europe, N=1533): 2 µg/mL (≈ 3.59 µM)
- MIC90 (E. coli ESBL−; L. Amer, N=389): 2 µg/mL (≈ 3.59 µM)
- Cumulative % Inhibition at MIC (E. coli ESBL−; MIC 1 μg/ml): 84.2%
- Cumulative % Inhibition at MIC (E. coli ESBL−; MIC 2 μg/ml): 95.9%
- Cumulative % Inhibition at MIC (E. coli ESBL−; MIC 4 μg/ml): 99.3%
- Cumulative % Inhibition at MIC (E. coli ESBL−; MIC 8 μg/ml): 99.9%
- Cumulative % Inhibition at MIC (E. coli ESBL−; MIC 16 μg/ml): 100%
- Cumulative % Inhibition at MIC (E. coli ESBL−; MIC ≤0.5 μg/ml, listed as head image P00005): 54.2%
- Cumulative % Inhibition at MIC (E. coli ESBL−; MIC ≥32 μg/ml): 100%
- MIC90 (E. coli ESBL−; N America, N=1172): 2 µg/mL (≈ 3.59 µM)
- MIC90 (K. pneumoniae ESBL+; Asia/Pac, N=124): 16 µg/mL (≈ 28.7 µM)
- MIC90 (K. pneumoniae ESBL+; Europe, N=151): 8 µg/mL (≈ 14.4 µM)
- MIC90 (K. pneumoniae ESBL+; L. Amer, N=209): 16 µg/mL (≈ 28.7 µM)
- Cumulative % Inhibition at MIC (K. pneumoniae ESBL+; MIC 1 μg/ml): 19.3%
- Cumulative % Inhibition at MIC (K. pneumoniae ESBL+; MIC 2 μg/ml): 56.8%
- Cumulative % Inhibition at MIC (K. pneumoniae ESBL+; MIC 4 μg/ml): 79.6%
- Cumulative % Inhibition at MIC (K. pneumoniae ESBL+; MIC 8 μg/ml): 90.2%
- Cumulative % Inhibition at MIC (K. pneumoniae ESBL+; MIC 16 μg/ml): 94.8%
- Cumulative % Inhibition at MIC (K. pneumoniae ESBL+; MIC ≤0.5 μg/ml, listed as head image P00010): 1.7%
- Cumulative % Inhibition at MIC (K. pneumoniae ESBL+; MIC ≥32 μg/ml): 100%
- MIC90 (K. pneumoniae ESBL+; N America, N=108): 16 µg/mL (≈ 28.7 µM)
- MIC90 (E. faecalis VS; Asia/Pac, N=214): 0.5 µg/mL (≈ 0.898 µM)
- MIC90 (E. faecalis VS; Europe, N=669): 0.25 µg/mL (≈ 0.449 µM)
- MIC90 (E. faecalis VS; L. Amer, N=290): 0.25 µg/mL (≈ 0.449 µM)
- Cumulative % Inhibition at MIC (E. faecalis VS; MIC 1 μg/ml): 99.9%
- Cumulative % Inhibition at MIC (E. faecalis VS; MIC 2 μg/ml): 100%
- Cumulative % Inhibition at MIC (E. faecalis VS; MIC ≤0.5 μg/ml, listed as head image P00001): 99.3%
- MIC90 (E. faecalis VS; N America, N=863): 0.5 µg/mL (≈ 0.898 µM)
- MIC90 (K. oxytoca; Asia/Pac, N=17): 2 µg/mL (≈ 3.59 µM)
- MIC90 (K. oxytoca; Europe, N=158): 2 µg/mL (≈ 3.59 µM)
- MIC90 (K. oxytoca; L. Amer, N=25): 4 µg/mL (≈ 7.19 µM)
- Cumulative % Inhibition at MIC (K. oxytoca; MIC 1 μg/ml): 57.6%
- Cumulative % Inhibition at MIC (K. oxytoca; MIC 2 μg/ml): 89.4%
- Cumulative % Inhibition at MIC (K. oxytoca; MIC 4 μg/ml): 95.2%
- Cumulative % Inhibition at MIC (K. oxytoca; MIC 8 μg/ml): 98.7%
- Cumulative % Inhibition at MIC (K. oxytoca; MIC 16 μg/ml): 99.7%
- Cumulative % Inhibition at MIC (K. oxytoca; MIC ≤0.5 μg/ml, listed as head image P00013): 2.1%
- Cumulative % Inhibition at MIC (K. oxytoca; MIC ≥32 μg/ml): 100%
- MIC90 (K. oxytoca; N America, N=177): 4 µg/mL (≈ 7.19 µM)
